Data as given in paper PMC6981637, “Tetrahydroquinoline-Isoxazole/Isoxazoline Hybrid Compounds as Potential Cholinesterases Inhibitors: Synthesis, Enzyme Inhibition Assays, and Molecular Modeling Studies” (International Journal of Molecular Sciences, 2019).
Values joined by “and” are separate entries in the source; they are usually repeats but may differ in a detail not shown here. Equal values may be shown once. Read-outs that look alike come from different tables or passages of the source.

Tests used:
[1] = molecular target: AChE (from Electrophorus electricus) (Electrophorus electricus, UniProt O42275)
BChE (from bovine serum) = molecular target: T1, BChE (from bovine serum) (Bos taurus, UniProt P32749); assay: BChE inhibitory activity (Ellman method); assay type: biochemical; details: for IC50: average from three independent experiments ± SEM; for selectivity against BChE: conclusions
T1 construct: purchased Sigma-Aldrich

[2] = Table 2, THQ–isoxazole hybrids 6, read-out: BChE (IC50)
[3] = Table 1, THQ–isoxazoline hybrids 5, read-out: IC50 BChE

AChE (from Electrophorus electricus), sequence (O42275 24-633): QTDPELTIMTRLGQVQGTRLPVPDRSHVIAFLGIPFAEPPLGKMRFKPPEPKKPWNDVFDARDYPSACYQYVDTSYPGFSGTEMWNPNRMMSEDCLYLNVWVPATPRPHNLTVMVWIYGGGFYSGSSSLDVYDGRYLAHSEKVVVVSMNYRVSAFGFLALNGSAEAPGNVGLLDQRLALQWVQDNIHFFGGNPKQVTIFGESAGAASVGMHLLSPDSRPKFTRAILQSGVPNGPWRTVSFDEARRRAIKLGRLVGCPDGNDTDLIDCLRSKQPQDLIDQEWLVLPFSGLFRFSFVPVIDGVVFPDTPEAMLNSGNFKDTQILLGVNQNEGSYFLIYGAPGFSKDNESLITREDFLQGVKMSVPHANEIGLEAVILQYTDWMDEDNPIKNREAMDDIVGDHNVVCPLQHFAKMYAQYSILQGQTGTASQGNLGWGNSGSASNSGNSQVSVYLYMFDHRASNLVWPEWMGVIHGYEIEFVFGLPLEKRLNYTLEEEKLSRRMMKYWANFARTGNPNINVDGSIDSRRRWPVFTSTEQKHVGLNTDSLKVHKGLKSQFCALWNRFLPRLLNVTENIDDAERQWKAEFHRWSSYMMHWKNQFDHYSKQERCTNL
T1 sequence (P32749 29-602): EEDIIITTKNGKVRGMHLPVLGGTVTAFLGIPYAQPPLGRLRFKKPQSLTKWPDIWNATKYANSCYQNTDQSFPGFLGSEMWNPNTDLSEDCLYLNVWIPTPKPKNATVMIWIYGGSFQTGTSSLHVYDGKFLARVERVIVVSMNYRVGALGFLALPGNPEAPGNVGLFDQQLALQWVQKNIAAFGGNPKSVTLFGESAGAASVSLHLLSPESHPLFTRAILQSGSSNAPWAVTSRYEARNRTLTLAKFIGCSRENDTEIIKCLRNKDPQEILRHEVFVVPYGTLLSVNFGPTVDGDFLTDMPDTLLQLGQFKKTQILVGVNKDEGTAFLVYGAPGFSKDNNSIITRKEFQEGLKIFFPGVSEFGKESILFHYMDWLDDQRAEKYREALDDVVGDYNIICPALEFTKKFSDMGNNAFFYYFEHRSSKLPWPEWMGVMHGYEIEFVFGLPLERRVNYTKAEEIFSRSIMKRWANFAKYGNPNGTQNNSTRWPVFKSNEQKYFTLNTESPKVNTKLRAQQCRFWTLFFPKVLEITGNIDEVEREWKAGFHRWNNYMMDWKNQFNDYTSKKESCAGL

Row | SMILES | SI [1] | IC50 ([1]; read-out: AChE (IC50)) | IC50 (BChE (from bovine serum); [2]) | IC50 ([1]; read-out: IC50 AChE) | IC50 (BChE (from bovine serum); [3]) | selectivity for inhibiting AChE [1] | selectivity against BChE (BChE (from bovine serum)) | times more potent against BChE than for the AChE enzyme (BChE (from bovine serum); selectivity for BChE)
1 | COc1cc(Cl)c2c(c1)C(N1CCCC1=O)CCN2Cc1cc(-c2ccc(OC)c(OC)c2)no1 (stereo not drawn) [6j, 5-((8′-chloro-6′-methoxy-4′-(2′’-oxopyrrolidin-1′’-yl)-3′,4′-dihydroquinolin-1′(2′H)-yl)methyl)-3-(3,4-dimethoxyphenyl)isoxazole] | 2.72 | 54.69 ± 0.01 µM | 149 ± 0.02 µM | – | – | – | – | –
2 | COc1cc(-c2cc(CN3CCC(N4CCCC4=O)c4cc(Cl)ccc43)on2)cc(OC)c1OC (stereo not drawn) [6p, 5-((6′-chloro-4′-(2′’-oxopyrrolidin-1′’-yl)-3′,4′-dihydroquinolin-1′(2′H)-yl)methyl)-3-(3,4,5-trimethoxyphenyl)isoxazole] | 1.11 | 41.95 ± 0.11 µM | 46.84 ± 0.01 µM | – | – | – | – | –
3 | COc1ccc2c(c1)C(N1CCCC1=O)CCN2CC1CC(c2ccccc2)=NO1 (stereo not drawn) [5i, 5-[(6-methoxy-4-(2′-oxopyrrolidin-1′-yl)-3,4-dihydroquinolin-1(2H)-yl)-methyl]-3-phenyl-4,5-dihydroisoxazole] | 1.79 | – | – | 82.04 ± 0.11 µM | 146.37 ± 0.03 µM | – | – | –
4 | COc1ccc(C2=NOC(CN3CCC(N4CCCC4=O)c4cc(Cl)ccc43)C2)cc1 (stereo not drawn) [5n, 5-[(6-chloro-4-(2′-oxopyrrolidin-1′-yl)-3,4-dihydroquinolin-1(2H)-yl)-methyl]-3-(4-methoxyphenyl)-4,5-dihydroisoxazole] | 5.19 | – | – | – | 22 ± 0.02 µM | significant selectivity | – | –
5 | COc1cc(C2=NOC(CN3CCC(N4CCCC4=O)c4cc(C)ccc43)C2)cc(OC)c1OC (stereo not drawn) [5h, 5-[(6-methyl-4-(2′-oxopyrrolidin-1′-yl)-3,4-dihydroquinolin-1(2H)-yl)-methyl]-3-(3,4,5-trimethoxyphenyl)-4,5-dihydroisoxazole] | 1.70 | – | – | 37.41 ± 0.03 µM | 63.72 ± 0.001 µM | – | – | –
6 | O=C1CCCN1C1CCN(Cc2cc(-c3ccccc3)no2)c2ccc(Br)cc21 (stereo not drawn) [6y, 5-((6′-bromo-4′-(2′’-oxopyrrolidin-1′’-yl)-3′,4′-dihydroquinolin-1′(2′H)-yl)methyl)-3-phenylisoxazole] | 0.87 | 97.84 ± 0.01 µM | 84.91 ± 0.01 µM | – | – | – | – | –
7 | COc1ccc(-c2cc(CN3CCC(N4CCCC4=O)c4cc(Br)ccc43)on2)cc1OC (stereo not drawn) [6aa, 3-(3,4-dimethoxyphenyl)-5-((6′-bromo-4′-(2′’-oxopyrrolidin-1′’-yl)-3′,4′-dihydroquinolin-1′(2′H)-yl)methyl)isoxazole] | 0.04 | 96.1 ± 0.01 µM | < 7.18 µM and 3.97 µM | – | – | – | more selective | about 24 times
8 | COc1ccc(-c2cc(CN3CCC(N4CCCC4=O)c4cc(OC)ccc43)on2)cc1 (stereo not drawn) [6i, 3-(4-methoxyphenyl)-5-((6′-methoxy-4′-(2′’-oxopyrrolidin-1′’-yl)-3′,4′-dihydroquinolin-1′(2′H)-yl)methyl)isoxazole] | 2.52 | 84.51 ± 0.01 µM | 213.22 ± 0.01 µM | – | – | – | – | –
9 | COc1cc(C2=NOC(CN3CCC(N4CCCC4=O)c4cc(Cl)ccc43)C2)cc(OC)c1OC (stereo not drawn) [5p, 5-[(6-chloro-4-(2′-oxopyrrolidin-1′-yl)-3,4-dihydroquinolin-1(2H)-yl)-methyl]-3-(3,4,5-trimethoxyphenyl)-4,5-dihydroisoxazole] | 8.61 | – | – | 12.28 ± 0.01 µM | 106 ± 2 µM | – | – | –
10 | COc1ccc(-c2cc(CN3CCC(N4CCCC4=O)c4cc(C)cc(Cl)c43)on2)cc1OC (stereo not drawn) [6f, 5-((8′-chloro-6′-methyl-4′-(2′’-oxopyrrolidin-1′’-yl)-3′,4′-dihydroquinolin-1′(2′H)-yl)methyl)-3-(3,4-dimethoxyphenyl)isoxazole] | 6.76 | 54.71 ± 0.02 µM | 370.12 ± 0.03 µM | – | – | – | – | –
11 | COc1ccc(C2=NOC(CN3CCC(N4CCCC4=O)c4cc(C)ccc43)C2)cc1 (stereo not drawn) [5f, 3-(4-methoxyphenyl)-5-[(6-methyl-4-(2′-oxopyrrolidin-1′-yl)-3,4-dihydroquinolin-1(2H)-yl)-methyl]-4,5-dihydroisoxazole] | 1.43 | – | – | 16.31 ± 0.01 µM | 23.36 ± 0.005 µM | – | – | –
12 | COc1cc(-c2cc(CN3CCC(N4CCCC4=O)c4cc(Br)ccc43)on2)cc(OC)c1OC (stereo not drawn) [6ab, 5-((6′-bromo-4′-(2′’-oxopyrrolidin-1′’-yl)-3′,4′-dihydroquinolin-1′(2′H)-yl)methyl)-3-(3,4,5-trimethoxyphenyl)isoxazole] | 0.36 | 148.31 ± 0.004 µM | 54.09 ± 0.01 µM | – | – | – | – | –
13 | COc1ccc2c(c1)C(N1CCCC1=O)CCN2Cc1cc(-c2ccccc2)no1 (stereo not drawn) [6h, 5-((6′-methoxy-4′-(2′’-oxopyrrolidin-1′’-yl)-3′,4′-dihydroquinolin-1′(2′H)-yl)methyl)-3-phenylisoxazole] | 0.08 | 52.76 ± 0.01 µM | < 7.18 µM and 4.33 µM | – | – | – | more selective | –
14 | COc1cc(-c2cc(CN3CCC(N4CCCC4=O)c4cc(F)ccc43)on2)cc(OC)c1OC (stereo not drawn) [6x, 5-((6′-fluoro-4′-(2′’-oxopyrrolidin-1′’-yl)-3′,4′-dihydroquinolin-1′(2′H)-yl)methyl)-3-(3,4,5-trimethoxyphenyl)isoxazole] | 6.57 | 24.83 ± 0.003 µM | 163.12 ± 0.01 µM | – | – | – | – | –
15 | COc1cc(-c2cc(CN3CCC(N4CCCC4=O)c4cc(C)ccc43)on2)cc(OC)c1OC (stereo not drawn) [6g, 3-(3,4,5-trimethoxyphenyl)-5-((6′-methyl-4′-(2′’-oxopyrrolidin-1′’-yl)-3′,4′-dihydroquinolin-1′(2′H)-yl)methyl)isoxazole] | 1.07 | 72.94 ± 0.02 µM | 78.16 ± 0.01 µM | – | – | – | – | –
16 | CCc1cc(Cl)c2c(c1)C(N1CCCC1=O)CCN2Cc1cc(-c2ccc(OC)c(OC)c2)no1 (stereo not drawn) [6s, 5-((8′-chloro-6′-ethyl-4′-(2′’-oxopyrrolidin-1′’-yl)-3′,4′-dihydroquinolin-1′(2′H)-yl)methyl)-3-(3,4-dimethoxyphenyl)isoxazole] | 0.83 | 26.82 ± 0.002 µM | 22.28 ± 0.004 µM | – | – | – | – | –
